Reference: ChEMBL document CHEMBL1133670 (J Med Chem, 2000)

Tests used:
[1] = target: Protein farnesyltransferase (Homo sapiens, UniProt P49354+P49356); test: Inhibition of purified recombinant human farnesyltransferase (FT)
[2] = target: T1, Protein farnesyltransferase (Rattus norvegicus) (UniProt Q04631+Q02293); test: Percent phenotypic reversion of H-ras transformed Rat-1 cells at 10 uM; assay type: functional, cell-based
[3] = target: T1, Protein farnesyltransferase (Rattus norvegicus); test: Percent phenotypic reversion of H-ras transformed Rat-1 cells at 1 uM; assay type: functional, cell-based
NIH3T3 = test: cells; conditions: Mus musculus
Description: Inhibition of anchorage independent growth of H-ras transformed NIH3T3 cells in Soft Agar

Mus musculus [4] = test: In vivo antitumor activity (log cell kill, LCK) by subcutaneous implantation of HCT116 tumors followed by oral administration at an optimal dose of 600 mg/kg in expt. 3; assay type: functional
Mus musculus [5] = organism: Mus musculus; test: Increase in lifespan reflected by relative median survival time of treated versus control groups expressed as maximum % T/C; assay type: functional
[6] = target: T1, Protein farnesyltransferase (Rattus norvegicus); test: Percent phenotypic reversion of H-ras transformed Rat-1 cells at 5 uM; assay type: functional, cell-based
Mus musculus [7] = test: In vivo antitumor activity (log cell kill, LCK) by subcutaneous implantation of HCT116 tumors followed by oral administration at an optimal dose of 600 mg/kg in expt. 2; assay type: functional
Mus musculus [8] = test: In vivo antitumor activity (log cell kill, LCK) by subcutaneous implantation of HCT116 tumors followed by oral administration at an optimal dose of 600 mg/kg in expt. 5; assay type: functional
[9] = Maximum concentration observed in rats at an oral dose of 50 mg/kg; conditions: rat, in vivo
[10] = Clearance in rats following intravenous dose of 50 mg/kg; conditions: rat, in vivo
[11] = Half-life of compound in rats following intravenous dose of 50 mg/kg; conditions: rat, in vivo
in vivo [12] = conditions: rat, po, 50 mg/kg
Description: Oral bioavailability observed in rats at an oral dose of 50 mg/kg

in vivo [13] = conditions: rat, iv, 50 mg/kg
Description: Volume of distribution (Vss) in rats following intravenous dose of 50 mg/kg

Mus musculus [14] = test: In vivo antitumor activity (log cell kill, LCK) by subcutaneous implantation of HCT116 tumors followed by oral administration at an optimal dose of 600 mg/kg in mice
Mus musculus [15] = test: In vivo antitumor activity (log cell kill, LCK) by subcutaneous implantation of HCT116 tumors followed by oral administration at an optimal dose of 700 mg/kg in expt. 1; assay type: functional
Mus musculus [16] = test: In vivo antitumor activity (log cell kill, LCK) by subcutaneous implantation of HCT116 tumors followed by oral administration at an optimal dose of 600 mg/kg in expt. 4; assay type: functional
[17] = Oral bioavailability, based on dose-normalized AUC values in BALB/c mice; assay type: ADME, organism-based; conditions: mouse, in vivo
[18] = Half-life of compound in Balb/c mice following an oral dose of 90 mg/kg; conditions: Balb/c mouse, in vivo

SMILES	IC50 [1]	Reversion [3]	EC50 (NIH3T3)	further results
O=C(c1cccc2ccccc12)N1CCN(Cc2cnc[nH]2)c2ccc(Br)cc2C1	0.228 µM	–	–	–
CS(=O)(=O)N1Cc2cc(C#N)ccc2N(Cc2c[nH]cn2)C[C@H]1Cc1ccccc1	0.003 µM	–	0.013 µM	LCK (Mus musculus [4]): 0.6
CS(=O)(=O)N1Cc2cc(Br)ccc2N(Cc2cnc[nH]2)CC1CCc1ccccc1 (stereo not given)	0.045 µM	–	–	–
CS(=O)(=O)N1Cc2cc(Br)ccc2N(Cc2c[nH]cn2)CC1Cc1ccccc1 (stereo not given)	–	80%	0.27 µM	T/C (Mus musculus [5]): 138%
O=C(c1cccc2ccccc12)N1CCN(Cc2c[nH]cn2)c2ccc(Br)cc2C1	–	–	–	Reversion [6]: 5%
CS(=O)(=O)N1Cc2cc(-c3ccncc3)ccc2N(Cc2c[nH]cn2)C[C@H]1Cc1ccccc1	0.016 µM	–	0.04 µM	LCK (Mus musculus [7]): 0.2
CS(=O)(=O)N1Cc2cc(-c3ccccc3)ccc2N(Cc2cnc[nH]2)C[C@H]1Cc1ccncc1	0.383 µM	–	–	–
CS(=O)(=O)N1Cc2cc(-c3cccnc3)ccc2N(Cc2cnc[nH]2)CC1Cc1ccccc1 (stereo not given)	0.0079 µM	–	–	–
CN(C)CCS(=O)(=O)N1Cc2cc(C#N)ccc2N(Cc2c[nH]cn2)C[C@H]1Cc1ccccc1	0.00153 µM	–	0.03 µM	LCK (Mus musculus [8]): 1
N#Cc1ccc2c(c1)CN(S(=O)(=O)c1cccs1)[C@H](Cc1ccccc1)CN2Cc1cnc[nH]1 [BMS-214662]	–	–	–	Cmax [9]: 20 µM; clearance [10]: 5.7 mL/min/kg; half-life [11]: 2.4 h; bioavailability (in vivo [12]): 56%; Vd (in vivo [13]): 1.4 L/kg
CC(=O)N1Cc2cc(Br)ccc2N(Cc2cnc[nH]2)CC1Cc1cccc2ccccc12 (stereo not given)	0.0545 µM	–	–	–
CS(=O)(=O)N1Cc2cc(Br)ccc2N(Cc2cnc[nH]2)CC1CNC(=O)c1ccccc1 (stereo not given)	0.086 µM	–	–	–
CS(=O)(=O)N1Cc2cc(Br)ccc2N(Cc2cnc[nH]2)CC1Cc1ccccc1 (stereo not given)	0.03 µM	–	–	–
CS(=O)(=O)N1Cc2cc(-c3ccccc3)ccc2N(Cc2c[nH]cn2)C[C@H]1Cc1cccnc1	0.00595 µM	–	0.015 µM	LCK (Mus musculus [14]): 0.1
CS(=O)(=O)N1Cc2cc(Br)ccc2N(Cc2cnc[nH]2)C[C@H]1CC1CCCCC1	0.0235 µM	–	–	–
CS(=O)(=O)N1Cc2cc(Br)ccc2N(Cc2c[nH]cn2)C[C@H]1CC1CCCCC1	–	–	–	Reversion [2]: 90%
CS(=O)(=O)N1Cc2cc(Br)ccc2N(Cc2c[nH]cn2)C[C@H]1Cc1ccccc1	–	70%	0.29 µM	LCK (Mus musculus [15]): 1.5
CS(=O)(=O)N1Cc2cc(-c3ccccc3)ccc2N(Cc2cnc[nH]2)CC1Cc1ccccc1 (stereo not given)	0.0545 µM	–	–	–
CS(=O)(=O)N1Cc2cc(Br)ccc2N(Cc2cnc[nH]2)C[C@@H]1Cc1ccccc1	0.437 µM	–	–	–
CN(C)S(=O)(=O)N1Cc2cc(C#N)ccc2N(Cc2c[nH]cn2)C[C@H]1Cc1ccccc1	0.00285 µM	–	0.05 µM	LCK (Mus musculus [16]): 0.2
O=C(c1cccc2ccccc12)N1CCN(Cc2c[nH]cn2)c2ccccc2C1	–	–	–	Reversion [2]: 0%

Continued, in another order:

IC50 [1]	Reversion [3]	SMILES	EC50 (NIH3T3)	further results
0.024 µM	–	CS(=O)(=O)N1Cc2cc(Br)ccc2N(Cc2c[nH]cn2)CC1Cc1cccc(Cl)c1 (stereo not given)	–	Reversion [2]: 70%
0.018 µM	70%	CS(=O)(=O)N1Cc2cc(Br)ccc2N(Cc2c[nH]cn2)CC1Cc1ccccc1Cl (stereo not given)	0.46 µM	–
0.00875 µM	–	CC(=O)N1Cc2cc(C#N)ccc2N(Cc2c[nH]cn2)C[C@H]1Cc1ccccc1	0.1 µM	–
–	70%	CS(=O)(=O)N1Cc2cc(Br)ccc2N(Cc2c[nH]cn2)CC1CCc1ccccc1 (stereo not given)	0.4 µM	–
–	10%	CS(=O)(=O)N1Cc2cc(-c3cccnc3)ccc2N(Cc2c[nH]cn2)CC1Cc1ccccc1 (stereo not given)	–	–
1.1 µM	–	CC1CN(Cc2c[nH]cn2)c2ccccc2CN1C(=O)c1cccc2ccccc12 (stereo not given)	–	Reversion [2]: 0%
0.00177 µM	–	N#Cc1ccc2c(c1)CN(S(=O)(=O)c1ccccc1)[C@H](Cc1ccccc1)CN2Cc1cnc[nH]1	0.01 µM	–
–	5%	CC(=O)N1Cc2cc(Br)ccc2N(Cc2c[nH]cn2)CC1Cc1cccc2ccccc12 (stereo not given)	–	–
0.00177 µM	–	CCCS(=O)(=O)N1Cc2cc(C#N)ccc2N(Cc2cnc[nH]2)C[C@H]1Cc1ccccc1	0.01 µM	–
0.06 µM	30%	CC(=O)N1Cc2cc(Br)ccc2N(Cc2c[nH]cn2)CC1Cc1ccccc1 (stereo not given)	0.6 µM	–
0.101 µM	0%	COc1ccc(CC2CN(Cc3c[nH]cn3)c3ccc(Br)cc3CN2S(C)(=O)=O)cc1 (stereo not given)	–	–
0.022 µM	50%	CCOC(=O)N1Cc2cc(C#N)ccc2N(Cc2c[nH]cn2)C[C@H]1Cc1ccccc1	0.3 µM	–
0.276 µM	–	O=C(c1cccc2ccccc12)N1Cc2ccccc2N(Cc2c[nH]cn2)CC1Cc1ccccc1 (stereo not given)	–	Reversion [2]: 70%
–	0%	CS(=O)(=O)N1Cc2cc(Br)ccc2N(Cc2c[nH]cn2)CC1CNC(=O)c1ccccc1 (stereo not given)	–	–
1.3 µM	–	CC(=O)N1Cc2ccccc2N(Cc2c[nH]cn2)CC1Cc1ccccc1 (stereo not given)	–	–
0.017 µM	40%	CN(C)C(=O)N1Cc2cc(C#N)ccc2N(Cc2c[nH]cn2)C[C@H]1Cc1ccccc1	–	–
0.0107 µM	–	CS(=O)(=O)N1Cc2cc(Br)ccc2N(Cc2cnc[nH]2)C[C@H]1Cc1ccccc1	–	bioavailability [17]: 40%; half-life [18]: 1.2 h
–	70%	CS(=O)(=O)N1Cc2cc(-c3ccccc3)ccc2N(Cc2c[nH]cn2)CC1Cc1ccccc1 (stereo not given)	0.53 µM	–
